Results: US20080194616A1, “PYRIDOPYRIMIDINONE COMPOUNDS USEFUL IN TREATING SODIUM CHANNEL-MEDIATED DISEASES OR CONDITIONS” (Xenon Pharmaceuticals Inc., priority 2007, published 2008)
Where a name gives a salt, the structure may show the parent alone.

Experiments:
sodium channel = test: Guanidine Influx Assay (In Vitro Assay); type: cell-based, human or rat; details: known cell line that expresses a sodium channel; read-out: IC50 Activity Level
Text: This example describes an in vitro assay for testing and profiling test agents against human or rat sodium channels stably expressed in cells of either an endogenous or recombinant origin. The assay is also useful for determining the IC-50 of a sodium channel blocking compound. The assay is based on the guanidine flux assay described by Reddy, N. L., et al., J. Med. Chem. (1998), 41(17):3298-302.
The guanidine influx assay is a radiotracer flux assay used to determine ion flux activity of sodium channels in a high-throughput microplate-based format. The assay uses ^14C-guanidine hydrochloride in combination with various known sodium channel modulators, to assay the potency of test agents. Potency is determined by an IC-50 calculation. Selectivity is determined by comparing potency of the compound for the channel of interest to its potency against other sodium channels (also called ‘selectivity profiling’).
Each of the test agents is assayed against cells that express the channels of interest. Voltage gated sodium channels are either TTX sensitive or insensitive. This property is useful when evaluating the activities of a channel of interest when it resides in a mixed population with other sodium channels. The following Table 1 summarizes cell lines useful in screening for a certain channel activity in the presence or absence of TTX.
Cells expressing the channel of interest are grown according to the supplier or in the case of a recombinant cell in the presence of selective growth media such as G418 (Gibco/Invitrogen). The cells are disassociated from the culture dishes with an enzymatic solution (1×) Trypsin/EDTA (Gibco/Invitrogen) and analyzed for density and viability using haemocytometer (Neubauer). Disassociated cells are washed and resuspended in their culture media then plated into Scintiplates (Beckman Coulter Inc.) (approximately 100,000 cells/well) and incubated at 37° C./5% CO2. for 20-24 hours. After an extensive wash with Low sodium HEPES-buffered saline solution (LNHBSS) (150 mM Choline Chloride, […] (Sigma), 1 mM Calcium Chloride, 5 mM Potassium Chloride, 1 mM Magnesium Chloride, 10 mM Glucose) agents diluted with LNHBSS are added to each well. (Varying concentrations of test agent may be used). The activation/radiolabel mixture contains aconitine (Sigma), and ^14C-guanidine hydrochloride (ARC).
After loading the cells with test agent and activation/radiolabel mixture, the Scintiplates are incubated at ambient temperature. Following the incubation, the Scintplates are extensively washed with LNHBSS supplemented with guanidine (Sigma). The Scintiplates are dried and then counted using a Wallac MicroBeta TriLux (Perkin-Elmer Life Sciences). The ability of the test agent to block sodium channel activity is determined by comparing the amount of ^14C-guanidine present inside the cells expressing the different sodium channels.
IC-50 value of a test agent for a specific sodium channel may be determined using the above general method. IC-50 may be determined using a 3,8,10,12 or 16 point curve in duplicate or triplicate with a starting concentration of 1, 5 or 10 μM diluted serially with a final concentration reaching the sub-nanomolar, nanomolar and low micromolar ranges. Typically the mid-point concentration of test agent is set at 1 μM, and sequential concentrations of half dilutions greater or smaller are applied (e.g. 0.5 μM; […] and 0.25 μM; 10 μM and 0.125 μM; 20 μM etc.). The IC-50 curve is calculated using the 4 Parameter Logistic Model or Sigmoidal Dose-Response Model formula (fit=(A+((B−A)/(1+((C/x)̂D)))).

SMILES | IC50 (sodium channel) [µM] | melting point
CCCCc1nc2ccccn2c(=O)c1-c1ccc(N)cc1 [Example 1.14, 2-butyl-3-(4-aminophenyl)-4H-pyrido[1,2-a]pyrimidin-4-one] | 0.1 to 1 | 95 to 97 °C
CCCCc1nc2ccccn2c(=O)c1-c1ccc(N[C@@H]2CCN(C(=O)OC(C)(C)C)C2)cc1C [Example 3.10, (R)-tert-butyl 3-{[4-(2-butyl-4-oxo-4H-pyrido[1,2-a]pyrimidin-3-yl)-3-methylphenyl]amino}pyrrolidine-1-carboxylate] | ≥ 10 | 162 to 168 °C
CCCCc1nc2ccccn2c(=O)c1-c1ccc(NC(=O)OC(C)(C)C)cc1 [Example 1.15, tert-butyl 4-(2-butyl-4-oxo-4H-pyrido[1,2-a]pyrimidin-3-yl)phenylcarbamate] | ≥ 10 | 132 to 135 °C
CC(C)c1nc2ccccn2c(=O)c1-c1ccc(Cl)cc1 [Example 1.5, 3-(4-chlorophenyl)-2-(1-methylethyl)-4H-pyrido[1,2-a]pyrimidin-4-one] | ≥ 10 | 98 to 100 °C
CCCCc1nc2ccccn2c(=O)c1-c1ccc(NC(=O)[C@@H]2CCCN2)cc1.Cl [Example 18, (S)—N-[4-(2-butyl-4-oxo-4H-pyrido[1,2-a]pyrimidin-3-yl)phenyl]prolinamide hydrochloride] | ≥ 10 | 179 to 187 °C
COc1nc2ccccn2c(=O)c1-c1ccc(Cl)cc1 [Example 1.24, 3-(4-chlorophenyl)-2-methoxy-4H-pyrido[1,2-a]pyrimidin-4-one] | ≥ 10 | 149 to 151 °C
CC(C)Nc1nc2ccccn2c(=O)c1-c1ccc(NC2CCN(C(=O)OC(C)(C)C)C2)cc1 (stereo not drawn) [Example 3.22, tert-butyl 3-[(4-{2-[(1-methylethyl)amino]-4-oxo-4H-pyrido[1,2-a]pyrimidin-3-yl}phenyl)amino]pyrrolidine-1-carboxylate] | ≥ 10 | 210 to 212 °C
CCCOc1nc2ccccn2c(=O)c1-c1ccc(N[C@@H]2CCNC2)cc1 [Example 9.1, (R)-2-propoxy-3-(4-(pyrrolidin-3-ylamino)phenyl)-4H-pyrido[1,2-a]pyrimidin-4-one trifluoroacetate] | ≥ 10 | 
CCCCc1nc2ccccn2c(=O)c1-c1ccc(NC[C@H]2CCCO2)cc1 [Example 3.27, (R)-2-butyl-3-(4-{[tetrahydrofuran-2-ylmethyl]amino}phenyl)-4H-pyrido[1,2-a]pyrimidin-4-one hydrochloride] | ≥ 10 | 
CCCCc1nc2ccccn2c(=O)c1-c1ccc2c(c1)CCN2C1CCNC1 (stereo not drawn) [Example 7.12, 2-butyl-3-(1-(pyrrolidin-3-yl)indolin-5-yl)-4H-pyrido[1,2-a]pyrimidin-4-one hydrochloride] | ≥ 10 | 
CCCCc1nc2ccc(F)cn2c(=O)c1-c1ccc(N[C@@H]2CCNC2)cc1 [Example 6.7, (R)-2-butyl-7-fluoro-3-{4-[pyrrolidin-3-ylamino]phenyl}-4H-pyrido[1,2-a]pyrimidin-4-one hydrochloride] | ≥ 10 | 
CCCCc1nc2ccccn2c(=O)c1-c1ccc(N[C@@H]2CCNC2)cc1.Cl [Example 8, (R)-2-butyl-3-(4-(pyrrolidin-3-ylamino)phenyl)-4H-pyrido[1,2-a]pyrimidin-4-one hydrochloride] | 1 to 10 | 171 to 174 °C
CCCCc1nc2ccccn2c(=O)c1-c1ccc(N[C@@H]2CCNC2)cc1C [Example 7.3, (R)-2-butyl-3-{2-methyl-4-[pyrrolidin-3-ylamino]phenyl}-4H-pyrido[1,2-a]pyrimidin-4-one hydrochloride] | ≥ 10 | 
CCCCc1nc2ccccn2c(=O)c1-c1ccc(OC)cc1 [Example 1, 2-butyl-3-(4-methoxyphenyl)-4H-pyrido[1,2-a]pyrimidin-4-one] | ≥ 10 | 
CC(C)Nc1nc2ccccn2c(=O)c1-c1ccc(NC2CCNC2)cc1 (stereo not drawn) [Example 7.9, 2-[(1-methylethyl)amino]-3-[4-(pyrrolidin-3-ylamino)phenyl]-4H-pyrido[1,2-a]pyrimidin-4-one hydrochloride] | ≥ 10 | 
CCCCc1nc2ccccn2c(=O)c1-c1ccc(O)cc1 [Example 11, 2-butyl-3-(4-hydroxyphenyl)-4H-pyrido[1,2-a]pyrimidin-4-one] | ≥ 10 | 160 °C (dec.)
CCc1nc2ccccn2c(=O)c1-c1ccc(N[C@@H]2CCN(C(=O)OC(C)(C)C)C2)cc1 [Example 3.4, (R)-tert-butyl 3-(4-(2-ethyl-4-oxo-4H-pyrido[1,2-a]pyrimidin-3-yl)phenylamino)pyrrolidine-1-carboxylate] | ≥ 10 | 
CCCCc1nc2ccccn2c(=O)c1-c1ccc(NC(=O)[C@@H]2CCCN2C(=O)OC(C)(C)C)cc1 [Example 5, (S)-tert-butyl 2-{[4-(2-butyl-4-oxo-4H-pyrido[1,2-a]pyrimidin-3-yl)phenyl]carbamoyl}-pyrrolidine-1-carboxylate] | ≥ 10 | 179 to 187 °C
CCCc1nc2ccccn2c(=O)c1-c1ccc(N[C@@H]2CCNC2)cc1 [Example 6.5, (R)-2-propyl-3-(4-(pyrrolidin-3-ylamino)phenyl)-4H-pyrido[1,2-α]pyrimidin-4-one hydrochloride] | ≥ 10 | 
CCCCc1nc2ccccn2c(=O)c1-c1ccc(NC2CCOCC2)cc1 [Example 3.26, 2-butyl-3-[4-(tetrahydro-2H-pyran-4-ylamino)phenyl]-4H-pyrido[1,2-a]pyrimidin-4-one hydrochloride] | ≥ 10 | 
CCCCc1nc2ccccn2c(=O)c1-c1ccc(O[C@@H]2CCNC2)cc1 [Example 15, (R)-2-butyl-3-{4-[pyrrolidin-3-yloxy]phenyl}-4H-pyrido[1,2-a]pyrimidin-4-one hydrochloride] | ≥ 10 | 
COc1nc2ccccn2c(=O)c1-c1ccc(NC2CCN(C(=O)OC(C)(C)C)C2)cc1 (stereo not drawn) [Example 3.19, tert-butyl 3-{[4-(2-methoxy-4-oxo-4H-pyrido[1,2-a]pyrimidin-3-yl)phenyl]amino}pyrrolidine-1-carboxylate] | ≥ 10 | 102 to 104 °C
CCCNc1nc2ccccn2c(=O)c1-c1ccc(NC2CCN(C(=O)OC(C)(C)C)C2)cc1 (stereo not drawn) [Example 3.21, tert-butyl 3-({4-[4-oxo-2-(propylamino)-4H-pyrido[1,2-a]pyrimidin-3-yl]phenyl}amino)pyrrolidine-1-carboxylate] | ≥ 10 | 187 to 190 °C
CCCCc1nc2ccccn2c(=O)c1-c1ccc(N[C@@H]2CCCNC2)cc1 [Example 6.2, (R)-2-butyl-3-{4-[piperidin-3-ylamino]phenyl}-4H-pyrido[1,2-a]pyrimidin-4-one hydrochloride] | ≥ 10 | 
CCCCc1nc2ccccn2c(=O)c1-c1ccc(N2CCNCC2)nc1 [Example 7.13, 2-butyl-3-(6-piperazin-1-ylpyridin-3-yl)-4H-pyrido[1,2-a]pyrimidin-4-one hydrochloride] | ≥ 10 | 
CCCCc1nc2cc(C(F)(F)F)ccn2c(=O)c1-c1ccc(N[C@@H]2CCNC2)cc1 [Example 6.8, (R)-2-butyl-3-{4-[pyrrolidin-3-ylamino]phenyl}-8-(trifluoromethyl)-4H-pyrido[1,2-a]pyrimidin-4-one hydrochloride] | ≥ 10 | 
CCCCc1nc2ccccn2c(=O)c1-c1ccc(OS(=O)(=O)C(F)(F)F)cc1 [Example 12, 4-(2-butyl-4-oxo-4H-pyrido[1,2-a]pyrimidin-3-yl)phenyl trifluoromethanesulfonate] | ≥ 10 | 
